Test results as given in patent publication US20260124222A1, “ISOTHIAZOLYLCARBOXAMIDE COMPOUNDS AND THEIR USE IN THERAPY” (HOTSPOT THERAPEUTICS, INC., priority 2022, published 2026).

Molecular target: T1, Avi-tagged FL MALT-1 (Homo sapiens, UniProt Q9UDY8)
T1 construct: Avi-tagged FL MALT-1 (Pharmaron, stored at −70° C.); Avi-tag; purchased Pharmaron
T1 sequence (Q9UDY8 1-824): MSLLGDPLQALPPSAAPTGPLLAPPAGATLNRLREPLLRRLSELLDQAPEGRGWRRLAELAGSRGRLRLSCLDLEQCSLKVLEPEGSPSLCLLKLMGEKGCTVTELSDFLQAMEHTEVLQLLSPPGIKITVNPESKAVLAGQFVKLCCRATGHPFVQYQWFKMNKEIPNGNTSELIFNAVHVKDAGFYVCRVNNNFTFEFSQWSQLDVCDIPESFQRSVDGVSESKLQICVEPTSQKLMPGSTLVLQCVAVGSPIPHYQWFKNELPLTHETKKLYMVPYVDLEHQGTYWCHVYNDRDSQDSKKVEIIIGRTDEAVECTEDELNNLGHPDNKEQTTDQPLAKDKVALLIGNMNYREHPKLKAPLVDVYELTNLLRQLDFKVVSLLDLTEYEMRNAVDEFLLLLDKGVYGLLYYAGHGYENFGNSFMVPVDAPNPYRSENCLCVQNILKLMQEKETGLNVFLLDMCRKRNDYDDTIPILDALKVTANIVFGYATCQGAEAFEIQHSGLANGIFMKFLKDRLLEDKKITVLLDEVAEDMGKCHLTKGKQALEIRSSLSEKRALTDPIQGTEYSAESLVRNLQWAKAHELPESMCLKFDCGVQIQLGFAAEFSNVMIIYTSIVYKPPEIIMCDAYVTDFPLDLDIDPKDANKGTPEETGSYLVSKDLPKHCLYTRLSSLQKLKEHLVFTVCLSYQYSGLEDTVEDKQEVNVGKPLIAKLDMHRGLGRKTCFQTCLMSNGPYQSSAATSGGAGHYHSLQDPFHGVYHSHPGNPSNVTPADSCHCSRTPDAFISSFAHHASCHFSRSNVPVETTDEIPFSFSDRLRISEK
Experiment: MALT-1 Fluorogenic Peptide Cleavage Assay (MALT1 inhibition assay)
Format: biochemical
Details: Ac-LRSR-AMC peptide substrate; 30 min pre-incubation, 90 min reaction at room temperature; fluorescence
In short: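 Full-length Avi-tagged enzyme preincubated 30 min at room temperature with compound (2% DMSO final) in HEPES pH 6.89 buffer with sodium citrate, TCEP, EDTA and CHAPS. Ac-LRSR-AMC substrate added at Km or 10×Km (working stocks 50 or […] μM); fluorescence (ex 342/em 441 nm) after 90 min; IC50 from sigmoidal fit.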

IC50 | Structure (SMILES)
≤ 400 nM | Cn1cc2c(-c3nsc(C(=O)Nc4cnc(-n5nccn5)c(C#N)c4)c3C3CC3)cccc2n1 [I-206, N-(5-cyano-6-(2H-1,2,3-triazol-2-yl)pyridin-3-yl)-4-cyclopropyl-3-(2-methyl-2H-indazol-4-yl)isothiazole-5-carboxamide]
≤ 400 nM | Cn1nc2cccc(-c3nsc(C(=O)Nc4ccnc(C(F)(F)F)c4)c3C3CC3)c2n1 [I-207, 4-cyclopropyl-3-(2-methyl-2H-benzo[d][1,2,3]triazol-4-yl)-N-(2-(trifluoromethyl)pyridin-4-yl)isothiazole-5-carboxamide]
400 to 1000 nM | Cn1cc2cccc(-c3nsc(C(=O)Nc4ccnc(C(F)(F)F)c4)c3C3CC3)c2n1 [I-208, 4-cyclopropyl-3-(2-methyl-2H-indazol-7-yl)-N-(2-(trifluoromethyl)pyridin-4-yl)isothiazole-5-carboxamide]
> 2500 nM | Cn1cc2c(-c3nsc(C(=O)Nc4cc(C(F)(F)F)ccn4)c3C3CC3)cccc2n1 [I-209, 4-cyclopropyl-3-(2-methylindazol-4-yl)-N-[4-(trifluoromethyl)pyridine-2-yl]-1,2-thiazole-5-carboxamide]
≤ 400 nM | O=C(Nc1ccnc(C(F)(F)F)c1)c1snc(-c2cccn3nccc23)c1C1CC1 [I-210, 4-cyclopropyl-3-(pyrazolo[1,5-a]pyridine-4-yl)-N-(2-(trifluoromethyl)pyridine-4-yl)isothiazole-5-carboxamide]
≤ 400 nM | Cc1cc(NC(=O)c2snc(-c3cccn4nccc34)c2C2CC2)ccn1 [I-211, 4-cyclopropyl-N-(2-methylpyridin-4-yl)-3-(pyrazolo[1,5-a]pyridine-4-yl)isothiazole-5-carboxamide]
≤ 400 nM | O=C(Nc1cnc(C(=O)N2CC(O)C2)c(Cl)c1)c1snc(-c2cccn3nccc23)c1C1CC1 [I-212, N-(5-chloro-6-(3-hydroxyazetidine-1-carbonyl)pyridin-3-yl)-4-cyclopropyl-3-(pyrazolo[1,5-a]pyridin-4-yl)isothiazole-5-carboxamide]

Continued, molecule first:

Structure (SMILES) | IC50
O=C(Nc1ccc(C(=O)N2CC(O)C2)c(Cl)c1)c1snc(-c2cccc3nccn23)c1C1CC1 [I-190, N-(3-chloro-4-(3-hydroxyazetidine-1-carbonyl)phenyl)-4-cyclopropyl-3-(imidazo[1,2-a]pyridin-5-yl)isothiazole-5-carboxamide] | ≤ 400 nM
Cc1cc(-c2nsc(C(=O)Nc3ccnc(C(F)(F)F)c3)c2C2CC2)ccn1 [I-191, 4-cyclopropyl-3-(2-methylpyridin-4-yl)-N-(2-(trifluoromethyl)pyridin-4-yl)isothiazole-5-carboxamide] | ≤ 400 nM
O=C(Nc1ccnc(C(F)(F)F)c1)c1snc(-c2cnccc2F)c1C1CC1 [I-192, 4-cyclopropyl-3-(4-fluoropyridin-3-yl)-N-(2-(trifluoromethyl)pyridin-4-yl)isothiazole-5-carboxamide] | ≤ 400 nM
CNC(=O)c1cccc(-c2nsc(C(=O)Nc3ccnc(C(F)(F)F)c3)c2C2CC2)c1 [I-193, 4-cyclopropyl-3-(3-(methylcarbamoyl)phenyl)-N-(2-(trifluoromethyl)pyridin-4-yl)isothiazole-5-carboxamide] | 400 to 1000 nM
O=C(Nc1ccnc(C(F)(F)F)c1)c1snc(-c2ccc3cncn3c2)c1C1CC1 [I-194, 4-cyclopropyl-3-(imidazo[1,5-a]pyridin-6-yl)-N-(2-(trifluoromethyl)pyridin-4-yl)isothiazole-5-carboxamide] | ≤ 400 nM
O=C(Nc1ccnc(C(F)(F)F)c1)c1snc(-c2cccc(F)c2)c1C1CC1 [I-195, 4-cyclopropyl-3-(3-fluorophenyl)-N-[2-(trifluoromethyl)pyridin-4-yl]-1,2-thiazole-5-carboxamide] | ≤ 400 nM
Cc1cc(NC(=O)c2snc(-c3ccccc3)c2C2CC2)ccn1 [I-196, 4-cyclopropyl-N-(2-methylpyridin-4-yl)-3-phenylisothiazole-5-carboxamide] | ≤ 400 nM
Cc1noc(C)c1-c1nsc(C(=O)Nc2ccnc(C(F)(F)F)c2)c1C1CC1 [I-197, 4-cyclopropyl-3-(3,5-dimethylisoxazol-4-yl)-N-(2-(trifluoromethyl)pyridin-4-yl)isothiazole-5-carboxamide] | ≤ 400 nM
O=C(Nc1ccc(C(=O)N2CC(O)C2)c(Cl)c1)c1snc(-c2cccc3c(=O)[nH]ccc23)c1C1CC1 [I-198, N-(3-chloro-4-(3-hydroxyazetidine-1-carbonyl)phenyl)-4-cyclopropyl-3-(1-oxo-1,2-dihydroisoquinolin-5-yl)isothiazole-5-carboxamide] | ≤ 400 nM
Cc1cc(NC(=O)c2snc(-c3cccc4ncccc34)c2C2CC2)ccn1 [I-199, 4-cyclopropyl-N-(2-methylpyridin-4-yl)-3-(quinolin-5-yl)isothiazole-5-carboxamide] | ≤ 400 nM
Cc1cc(NC(=O)c2snc(-c3cccc4c(=O)[nH]ccc34)c2C2CC2)ccn1 [I-200, 4-cyclopropyl-N-(2-methylpyridin-4-yl)-3-(1-oxo-1,2-dihydroisoquinolin-5-yl)isothiazole-5-carboxamide] | ≤ 400 nM
Cc1cc(NC(=O)c2snc([C@@H]3CCOC3)c2C2CC2)ccn1 [I-201, (S)-4-cyclopropyl-N-(2-methylpyridin-4-yl)-3-(tetrahydrofuran-3-yl)isothiazole-5-carboxamide] | > 2500 nM
Cc1cc(NC(=O)c2snc([C@H]3CCOC3)c2C2CC2)ccn1 [I-202, 4-cyclopropyl-N-(2-methylpyridin-4-yl)-3-[(3R)-oxolan-3-yl]-1,2-thiazole-5-carboxamide] | > 2500 nM
Cn1cc2c(-c3nsc(C(=O)Nc4ccc(C(=O)N5CC(O)C5)c(Cl)c4)c3C3CC3)cccc2n1 [I-203, N-(3-chloro-4-(3-hydroxyazetidine-1-carbonyl)phenyl)-4-cyclopropyl-3-(2-methyl-2H-indazol-4-yl)isothiazole-5-carboxamide] | 400 to 1000 nM
O=C(Nc1ccnc(C(F)(F)F)c1)c1snc([C@@H]2CCOC2)c1C1CC1 [I-204, (S)-4-cyclopropyl-3-(tetrahydrofuran-3-yl)-N-(2-(trifluoromethyl)pyridin-4-yl)isothiazole-5-carboxamide] | > 2500 nM
O=C(Nc1ccnc(C(F)(F)F)c1)c1snc([C@H]2CCOC2)c1C1CC1 [I-205, (R)-4-cyclopropyl-3-(tetrahydrofuran-3-yl)-N-(2-(trifluoromethyl)pyridin-4-yl)isothiazole-5-carboxamide] | 1000 to 2500 nM
